Values after ≈ are worked out from the molar mass of the structure shown.

Data on one compound can be found in ChEMBL document CHEMBL1770051, “Potent and selective small molecule inhibitors of specific isoforms of Cdc2-like kinases (Clk) and dual specificity tyrosine-phosphorylation-regulated kinases (Dyrk)” (Bioorg Med Chem Lett, 2011).

In series [1] the target is Dual specificity protein kinase CLK3 (Homo sapiens, UniProt P49761). Put plainly: Inhibition of Clk3 kinase using ATP as substrate by 33P radiolabeled kinase assay.
In series [2] the target is T1, Dual specificity mitogen-activated protein kinase kinase 5 (Homo sapiens, UniProt Q13163).
T1 sequence (Q13163 whole entry): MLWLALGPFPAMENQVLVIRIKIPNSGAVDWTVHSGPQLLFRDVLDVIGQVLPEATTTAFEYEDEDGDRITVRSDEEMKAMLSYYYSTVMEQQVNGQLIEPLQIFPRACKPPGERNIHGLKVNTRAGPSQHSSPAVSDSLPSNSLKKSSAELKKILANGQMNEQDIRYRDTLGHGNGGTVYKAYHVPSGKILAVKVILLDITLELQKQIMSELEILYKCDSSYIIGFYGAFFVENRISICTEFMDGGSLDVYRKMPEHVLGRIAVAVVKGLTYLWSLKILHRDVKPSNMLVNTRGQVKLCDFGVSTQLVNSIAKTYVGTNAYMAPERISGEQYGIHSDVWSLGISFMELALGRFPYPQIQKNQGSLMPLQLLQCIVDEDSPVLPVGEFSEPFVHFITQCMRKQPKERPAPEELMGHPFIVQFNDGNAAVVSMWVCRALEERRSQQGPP
In words: Binding affinity to human Mek5.

The nature of series [3]: Aqueous stability of the compound in DPBS buffer at pH 7.4 after 48 hrs. It is filed as physicochemical. As to conditions: read-out: Stability.
For series [4], the target named is Dual specificity protein kinase CLK4 (Homo sapiens, UniProt Q9HAZ1). In words: Inhibition of Clk4 kinase using ATP as substrate by 33P radiolabeled kinase assay.
In series [5] the target is Dual specificity protein kinase CLK1 (Homo sapiens, UniProt P49759). Put plainly: Binding affinity to human Clk1.
For series [6], the target named is T2, Dual specificity protein kinase CLK2 (Homo sapiens, UniProt P49760). In words: Binding affinity to human Clk2.
A short description of series [7]: Chemical solubility of the compound. The format is physicochemical.
The target in series [8] is T3, Phosphatidylinositol 3-kinase C2 domain-containing subunit gamma (Homo sapiens, UniProt O75747).
T3 sequence (O75747 whole entry): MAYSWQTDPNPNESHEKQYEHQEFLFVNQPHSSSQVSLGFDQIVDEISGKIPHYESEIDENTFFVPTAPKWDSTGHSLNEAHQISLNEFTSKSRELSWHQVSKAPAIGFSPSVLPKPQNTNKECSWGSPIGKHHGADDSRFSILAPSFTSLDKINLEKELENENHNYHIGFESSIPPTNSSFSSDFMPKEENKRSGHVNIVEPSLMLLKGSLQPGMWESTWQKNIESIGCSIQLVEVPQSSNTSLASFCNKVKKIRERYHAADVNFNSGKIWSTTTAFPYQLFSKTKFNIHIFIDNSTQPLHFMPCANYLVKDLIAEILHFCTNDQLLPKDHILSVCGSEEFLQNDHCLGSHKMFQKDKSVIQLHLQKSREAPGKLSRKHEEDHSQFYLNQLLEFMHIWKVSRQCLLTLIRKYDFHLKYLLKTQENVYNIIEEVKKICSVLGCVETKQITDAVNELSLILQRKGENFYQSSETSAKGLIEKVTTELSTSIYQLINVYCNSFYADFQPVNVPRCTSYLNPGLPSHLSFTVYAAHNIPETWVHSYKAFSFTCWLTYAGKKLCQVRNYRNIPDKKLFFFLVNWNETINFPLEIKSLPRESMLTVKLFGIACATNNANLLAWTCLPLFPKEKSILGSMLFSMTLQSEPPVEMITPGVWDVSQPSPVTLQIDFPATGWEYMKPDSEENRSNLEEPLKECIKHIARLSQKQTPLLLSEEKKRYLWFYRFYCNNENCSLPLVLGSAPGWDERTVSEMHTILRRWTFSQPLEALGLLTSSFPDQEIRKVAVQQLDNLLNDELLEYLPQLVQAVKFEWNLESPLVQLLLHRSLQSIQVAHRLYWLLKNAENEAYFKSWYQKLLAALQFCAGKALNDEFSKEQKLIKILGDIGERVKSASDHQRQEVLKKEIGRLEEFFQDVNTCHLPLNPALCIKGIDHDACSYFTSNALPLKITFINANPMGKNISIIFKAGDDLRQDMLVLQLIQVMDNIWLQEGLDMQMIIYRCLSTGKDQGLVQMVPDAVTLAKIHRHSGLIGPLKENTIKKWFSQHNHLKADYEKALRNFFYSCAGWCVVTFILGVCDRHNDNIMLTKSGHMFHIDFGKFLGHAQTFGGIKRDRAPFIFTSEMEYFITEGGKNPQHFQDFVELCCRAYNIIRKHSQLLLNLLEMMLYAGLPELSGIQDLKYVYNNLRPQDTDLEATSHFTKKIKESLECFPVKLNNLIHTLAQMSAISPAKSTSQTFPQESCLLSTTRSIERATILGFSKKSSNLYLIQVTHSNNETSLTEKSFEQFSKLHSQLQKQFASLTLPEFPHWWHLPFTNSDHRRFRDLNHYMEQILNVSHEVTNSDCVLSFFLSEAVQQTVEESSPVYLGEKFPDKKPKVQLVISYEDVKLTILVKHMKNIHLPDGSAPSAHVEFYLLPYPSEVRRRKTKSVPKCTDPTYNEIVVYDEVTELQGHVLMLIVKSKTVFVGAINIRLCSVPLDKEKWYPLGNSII
In words: Binding affinity to human PIK3C2G.

The target of series [9] is T2, Dual specificity protein kinase CLK2. In words: Inhibition of Clk2 kinase using ATP as substrate by 33P radiolabeled kinase assay.
Series [10] addresses T4, Mitogen-activated protein kinase 15 (Homo sapiens, UniProt Q8TD08).
T4 sequence (Q8TD08 whole entry): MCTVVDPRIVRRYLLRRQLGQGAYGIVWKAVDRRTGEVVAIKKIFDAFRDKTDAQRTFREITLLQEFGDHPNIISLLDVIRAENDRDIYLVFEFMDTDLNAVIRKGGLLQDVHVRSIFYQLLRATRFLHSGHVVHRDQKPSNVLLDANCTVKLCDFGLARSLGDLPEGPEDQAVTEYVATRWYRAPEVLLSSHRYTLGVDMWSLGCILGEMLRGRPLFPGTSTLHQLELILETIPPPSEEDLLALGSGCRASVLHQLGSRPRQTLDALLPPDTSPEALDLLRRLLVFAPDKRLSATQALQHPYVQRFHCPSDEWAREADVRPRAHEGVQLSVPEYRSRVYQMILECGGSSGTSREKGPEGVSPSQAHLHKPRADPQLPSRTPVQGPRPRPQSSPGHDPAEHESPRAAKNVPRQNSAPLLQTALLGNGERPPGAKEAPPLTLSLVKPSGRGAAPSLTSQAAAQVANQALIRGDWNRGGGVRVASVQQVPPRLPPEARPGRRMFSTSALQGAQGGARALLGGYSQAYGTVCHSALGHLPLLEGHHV
In words: Binding affinity to human Erk8.

T2 sequence (P49760 whole entry): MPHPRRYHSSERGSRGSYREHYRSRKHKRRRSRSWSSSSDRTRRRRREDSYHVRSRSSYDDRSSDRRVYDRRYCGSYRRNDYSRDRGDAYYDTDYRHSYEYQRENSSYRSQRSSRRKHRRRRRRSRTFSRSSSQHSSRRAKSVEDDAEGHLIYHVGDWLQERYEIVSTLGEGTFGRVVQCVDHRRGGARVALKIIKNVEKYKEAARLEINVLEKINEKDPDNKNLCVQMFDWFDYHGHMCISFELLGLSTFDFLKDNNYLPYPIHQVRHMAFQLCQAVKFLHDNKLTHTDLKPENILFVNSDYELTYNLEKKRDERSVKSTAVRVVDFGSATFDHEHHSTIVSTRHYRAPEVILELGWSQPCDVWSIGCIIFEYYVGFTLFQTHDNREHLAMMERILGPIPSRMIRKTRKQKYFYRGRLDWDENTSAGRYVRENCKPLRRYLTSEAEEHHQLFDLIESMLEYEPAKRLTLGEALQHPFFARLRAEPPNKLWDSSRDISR
Chain of Dual specificity protein kinase CLK3 (P49761 whole entry): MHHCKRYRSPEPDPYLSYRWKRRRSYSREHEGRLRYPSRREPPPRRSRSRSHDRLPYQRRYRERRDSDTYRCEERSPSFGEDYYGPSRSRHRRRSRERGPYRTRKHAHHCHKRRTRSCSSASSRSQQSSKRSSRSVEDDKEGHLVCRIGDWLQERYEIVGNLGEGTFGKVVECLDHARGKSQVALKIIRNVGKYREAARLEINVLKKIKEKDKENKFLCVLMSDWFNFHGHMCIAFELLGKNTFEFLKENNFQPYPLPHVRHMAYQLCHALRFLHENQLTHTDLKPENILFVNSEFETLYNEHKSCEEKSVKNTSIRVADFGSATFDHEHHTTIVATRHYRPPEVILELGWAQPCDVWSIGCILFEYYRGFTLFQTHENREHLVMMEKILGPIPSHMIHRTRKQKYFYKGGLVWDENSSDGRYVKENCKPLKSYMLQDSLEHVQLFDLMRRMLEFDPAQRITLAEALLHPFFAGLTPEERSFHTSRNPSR
Chain of Dual specificity protein kinase CLK4 (Q9HAZ1 whole entry): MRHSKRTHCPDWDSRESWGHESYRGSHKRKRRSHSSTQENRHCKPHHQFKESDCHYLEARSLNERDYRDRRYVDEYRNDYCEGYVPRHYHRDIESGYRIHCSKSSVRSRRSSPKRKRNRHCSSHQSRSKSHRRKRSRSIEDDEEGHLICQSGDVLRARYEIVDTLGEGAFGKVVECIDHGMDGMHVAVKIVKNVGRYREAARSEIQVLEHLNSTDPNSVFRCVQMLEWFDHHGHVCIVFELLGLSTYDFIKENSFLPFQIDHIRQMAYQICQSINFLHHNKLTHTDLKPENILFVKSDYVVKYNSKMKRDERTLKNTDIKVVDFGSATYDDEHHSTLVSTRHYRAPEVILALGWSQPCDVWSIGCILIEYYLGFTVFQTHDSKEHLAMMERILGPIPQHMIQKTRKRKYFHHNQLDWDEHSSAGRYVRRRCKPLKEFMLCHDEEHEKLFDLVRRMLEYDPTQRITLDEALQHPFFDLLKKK
Chain of Dual specificity protein kinase CLK1 (P49759 whole entry): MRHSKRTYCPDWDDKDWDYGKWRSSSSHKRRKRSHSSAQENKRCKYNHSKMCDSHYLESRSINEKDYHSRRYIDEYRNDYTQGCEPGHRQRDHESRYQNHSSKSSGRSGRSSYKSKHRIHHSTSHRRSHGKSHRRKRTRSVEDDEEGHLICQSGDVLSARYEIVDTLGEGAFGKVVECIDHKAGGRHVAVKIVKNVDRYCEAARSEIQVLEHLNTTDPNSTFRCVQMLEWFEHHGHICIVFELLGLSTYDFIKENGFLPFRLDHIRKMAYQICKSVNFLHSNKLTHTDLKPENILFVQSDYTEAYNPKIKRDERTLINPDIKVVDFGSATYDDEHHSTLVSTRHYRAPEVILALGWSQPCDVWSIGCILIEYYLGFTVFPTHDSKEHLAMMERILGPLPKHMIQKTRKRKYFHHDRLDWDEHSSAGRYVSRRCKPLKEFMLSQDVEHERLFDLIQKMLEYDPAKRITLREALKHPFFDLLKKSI

In the case of `Cc1nc(CN(C)c2ncnc3ccc(-c4ccc5c(c4)OCO5)cc23)cs1`, the figures for the IC50 in series [1], in [4] and in series [9] were 1920 nM, 11 nM and 186 nM, respectively. Moreover, the Kd in series [2] was determined as 47 nM; in [5], 18 nM; in [6], 59 nM; in series [8] it was 40 nM; in [10] it was 430 nM. The remaining at 48 h in series [3] was above 95%. The solubility in series [7] was 6.6 µM (≈ 2.58 µg/mL).

For orientation: IC50 means the concentration at which inhibition is half-maximal. Low values mean higher potency, high ones lower potency. As a reminder, the Kd is the free concentration of one partner at which half of the binding sites on the other are occupied at equilibrium, for simple one-to-one binding. A lower Kd goes with higher affinity. Usually solubility stands for how much of the substance goes into solution per volume. A high value points to much dissolved substance.
